Data: patent US20040253256A1, “Biological compositions and methods for treatment of prostate cancer” (priority 2003, published 2004)
Like-named read-outs stand apart in the source and are kept apart here.

Columns and labels:
[1] = tested on: human prostate cancer; conditions: for Number of live animals remaining in the groups after 30 days of treatment: 30 mice per group, 2CTX 45 mg/kg/day s.c.
Description: (§1) The animals used to generate the prostate cancer cells for the experiments were male nude mouse (obtainable from the Chinese Academy of Military Medical Sciences, Beijing, China) with an average weight of about 15 to 18 gram. Fresh prostate tumor cells (obtainable from the Cancer Institute, Chinese Academy of Medical Sciences, Beijing, China) were divided into sections of size 1-2 mm^3 and immediately stored in […] suspension after removal from the human patient.
The mouse were starved for 24 hours before the surgery. The animals were generally anaesthetized. The barbiturates was first diluted in saline and then injected at 0.3 to 0.4 ml per animal, or 30 mg per kg body weight, into the abdomen of the mice. Under sterile conditions, a 1 cm long opening in the body cavity was cut along the right rib of the mice for engraftment of the tumor. About 10^6 units of tumor cells (about 2 mg tumor pieces per ml culture medium) were transplanted. Afterwards, the opening was sutured and the mice were put back into the cage. The animals were allowed to grow for three to five weeks or when the tumor grows to about 1 to 2 cm^3 in size. […] The tumor was removed from a donor rat and minced aseptically in 4 ml of Hank's solution to form a cell suspension. About 10^6 units of tumor cells (about 0.2 ml cell suspension) were transplanted into a healthy batch of nude mice.
The survival time of mice after tumor injection and treatment was studied.
The biological composition comprising 10^8 cells per ml of activated and conditioned yeast cells of the strain Saccharomyces carlsbergensis Hansen strain AS2.440 was prepared by the methods described in Section 5.1 and subsections therein
The animals were prepared in a similar manner as described in Section 6.1.
The mice injected with tumor cells were kept for 2 weeks and then were divided into 4 experimental groups of ten mice per group and one control group. The four experimental groups were triplicated (i.e., using a total of 120 mice in the experimental groups). In group 2AY, the mice received 0.5 ml of the biological composition once per day. In group 2NY, the mice received 0.5 ml of the untreated yeast cells once per day. In group 2CTX, the mice were injected subcutaneously with 45 mg of cyclophosphamide (CTX) per kg body weight per day. In group 2CK1, the mice received 0.5 ml of physiological saline once per day.
The mice received the biological compositions, untreated yeast cells, CTX or saline on the same day as the tumor cells were transplanted. The mice in group 2CK2 also started receiving saline on the same day as the other four groups. The biological compositions, untreated yeast cells and saline were administered orally by a feeding tube and the CTX by subcutaneous injection for 30 consecutive days. The mice were observed over 6 months from the day of tumor inoculation and survival was recorded. The weight of the mice and the weight of the tumor were determined by standard techniques.

[2] = tested on: human prostate cancer; conditions: 31st day from tumor inoculation; 30 consecutive days; AY/NY 0.3 ml oral once per day, CTX 30 mg/kg/day s.c.
Description: as §1
The mouse were starved for 24 hours before the surgery. The animals were generally anaesthetized. The barbiturates was first diluted in saline and then injected at 0.3 to 0.4 ml per animal, or 30 mg per kg body weight, into the abdomen of the mice. Under sterile conditions, a 1 cm long opening in the body cavity was cut along the right rib of the mice for engraftment of the tumor. About 10^6 units of tumor cells (about 2 mg tumor pieces per ml culture medium) were transplanted. Afterwards, the opening was sutured and the mice were put back into the cage. The animals were allowed to grow for three to five weeks or when the tumor grows to about 1 to 2 cm^3 in size. […]
The mice received the biological compositions, untreated yeast cells, CTX or saline on the same day as the tumor cells were transplanted. […] The weight of the mice and the weight of the tumor were determined by standard techniques.

[3] = tested on: human prostate cancer; assay: Example 7: survival time in nude mouse model of human prostate cancer (thiotepa comparator); assay type: in vivo; conditions: for Number of live animals remaining in the groups after 30 days of treatment: 30 mice per group
Description: (§2) The animals were generally anaesthetized.
In group 2TSPA, the mice were injected intravenously with 2.2 mg of thiotepa (TSPA) per kg body weight per day.

[4] = tested on: human prostate cancer; assay: Example 6: tumor growth in nude mouse model of human prostate cancer (thiotepa comparator); assay type: in vivo; conditions: 31st day from tumor inoculation; 30 consecutive days; AY/NY 0.3 ml oral once per day, TSPA 1.5 mg/kg/day i.v.
Description: The human prostate cancer sample was carefully selected before, during, and after surgery in order to ensure transplant occurred at the equivalent position in the mouse. The prostate cancer sample was obtained from patients who have not received any radiation, chemotherapy, or immune enhancement treatment.
as §2
In group TSPA, the mice were injected intravenously with 1.5 mg of thiotepa (TSPA) per kg body weight per day.

[5] = mice that survived the 6 months observation, 2AY/2NY 0.5 ml oral daily, CTX 45 mg/kg/day s.c., 30 days
[6] = mice that survived the 6 months observation, 2AY/2NY 0.5 ml oral daily, 2TSPA 2.2 mg/kg/day i.v., 30 days

O=P1(N(CCCl)CCCl)NCCCO1 (stereo not drawn) [CTX, cyclophosphamide]
Number of live animals remaining in the groups after 30 days of treatment ([1]; 0 month after cessation of treatment, 2AY/2NY 0.5 ml oral daily): 30 | Number of live animals remaining in the groups after 30 days of treatment ([1]; 1 month after cessation of treatment, 2AY/2NY 0.5 ml oral daily): 30 | survival after six months from injection of tumor cells ([1]; 2NY 0.5 ml per day, 2CTX 45 mg/kg per day, 30 days): all died | Number of live animals remaining in the groups after 30 days of treatment ([1]; 2 months after cessation of treatment, 2AY/2NY 0.5 ml oral daily): 30 | Number of live animals remaining in the groups after 30 days of treatment ([1]; 3 months after cessation of treatment, 2AY/2NY 0.5 ml oral daily): 27 | Number of live animals remaining in the groups after 30 days of treatment ([1]; 4 months after cessation of treatment, 2AY/2NY 0.5 ml oral daily): 22 | Number of live animals remaining in the groups after 30 days of treatment ([1]; 5 months after cessation of treatment, 2AY/2NY 0.5 ml oral daily): 17 | Number of live animals remaining in the groups after 30 days of treatment ([1]; 6 months after cessation of treatment, 2AY/2NY 0.5 ml oral daily): 0 | mean weight of mice and standard deviation [2]: 16.7 ± 1.7 g | mean weight of tumor nodules and standard deviation [2]: 3.3 ± 1.7 g

S=P(N1CC1)(N1CC1)N1CC1 [TSPA, thiotepa]
mean weight of mice and standard deviation [1, 5]: all animals dead | mean weight of tumor nodules and standard deviation [1, 5]: all animals dead | Number of live animals remaining in the groups after 30 days of treatment ([3]; 0 month after cessation of treatment, 2AY/2NY 0.5 ml oral daily, 2TSPA 2.2 mg/kg/day i.v.): 30 | Number of live animals remaining in the groups after 30 days of treatment ([3]; 1 month after cessation of treatment, 2AY/2NY 0.5 ml oral daily, 2TSPA 2.2 mg/kg/day i.v.): 30 | survival after six months from injection of tumor cells ([3]; 2NY 0.5 ml per day, 2TSPA 2.2 mg/kg per day, 30 days): all died | Number of live animals remaining in the groups after 30 days of treatment ([3]; 2 months after cessation of treatment, 2AY/2NY 0.5 ml oral daily, 2TSPA 2.2 mg/kg/day i.v.): 30 | Number of live animals remaining in the groups after 30 days of treatment ([3]; 3 months after cessation of treatment, 2AY/2NY 0.5 ml oral daily, 2TSPA 2.2 mg/kg/day i.v.): 27 | Number of live animals remaining in the groups after 30 days of treatment ([3]; 4 months after cessation of treatment, 2AY/2NY 0.5 ml oral daily, 2TSPA 2.2 mg/kg/day i.v.): 17 | Number of live animals remaining in the groups after 30 days of treatment ([3]; 5 months after cessation of treatment, 2AY/2NY 0.5 ml oral daily, 2TSPA 2.2 mg/kg/day i.v.): 5 | Number of live animals remaining in the groups after 30 days of treatment ([3]; 6 months after cessation of treatment, 2AY/2NY 0.5 ml oral daily, 2TSPA 2.2 mg/kg/day i.v.): 0 | mean weight of mice and standard deviation [3, 6]: all animals dead | mean weight of tumor nodules and standard deviation [3, 6]: all animals dead | mean weight of mice and standard deviation [4]: 16.2 ± 1.7 g | mean weight of tumor nodules and standard deviation [4]: 2.4 ± 1.2 mg
